The values below come from US20240254119A1 (THIRD HARMONIC BIO, INC., priority 2022, published 2024).

The structures appear in SMILES notation. Some results are limits rather than exact numbers.

The target in the assay is T1, wtKIT (Homo sapiens, UniProt P10721).
T1 construct: 1888289AM in the reaction mixtures
The experiment in a line: HTRF biochemical assay, wtKIT (phosphorylation of a peptide substrate). The note with it: Table 4. As for the experimental part: Exemplary compounds were tested for ability to inhibit the phosphorylation of a peptide substrate by the tyrosine kinase wt KIT, PDGFRα, or CSF-1R. Assay procedures and results are described below.
Enzyme, substrate, and cofactors (ATP and Mn^2+) are combined in a well of a microtiter plate and incubated for 3 hours at 25° C. At the end of the incubation, the reaction is quenched by the addition of an EDTA-containing buffer.
The substrate used in the CSF-1R and PDGFRα assay is FAM-[…]-CONH2 (FAM is carboxyfluorescein). Peptide should be >95% purity. The substrate for the KIT assay is FAM-[…]-NH2.
• 1. To a well of a 384-wellplate add 5 μL of 2× enzyme buffer (or control). • 2. Add 100 nL of 100× compound. Enzyme and compound may be pre-incubated at this time if desired. • 3. Add 5 μL of 2× substrate buffer. • 4. Incubate plate at 25° C. for 3 hours. • 5. Add 10 uL of anti-phosphotyrosine antibody buffer. • 6. Read plate in BioTek Synergy Reader. Reaction Conditions for wtKIT Assay
• 100 mM HEPES, pH 7.5 0.1% BSA • 0.01% Triton x-100 • 1 mM DTT • 10 mM MnCl2 • 10 μM Sodium Orthovanadate • 10 μM Beta-Glycerophosphate • 400 μM ATP • 1% DMSO (from compound) • 1 μM FAM-[…]-CONH2, 5.0 nM wtKIT Enzyme (1888289AM)* • *Specific activity may vary from lot to lot. Enzyme concentration may need to be adjusted to yield 10-20% conversion of substrate to product.
On the technique in general: TR-FRET usually uses a lanthanide donor and a delayed reading to cut background.

Broadly, the IC50 is the concentration needed to halve the response being measured.

T1 sequence (P10721 26-976): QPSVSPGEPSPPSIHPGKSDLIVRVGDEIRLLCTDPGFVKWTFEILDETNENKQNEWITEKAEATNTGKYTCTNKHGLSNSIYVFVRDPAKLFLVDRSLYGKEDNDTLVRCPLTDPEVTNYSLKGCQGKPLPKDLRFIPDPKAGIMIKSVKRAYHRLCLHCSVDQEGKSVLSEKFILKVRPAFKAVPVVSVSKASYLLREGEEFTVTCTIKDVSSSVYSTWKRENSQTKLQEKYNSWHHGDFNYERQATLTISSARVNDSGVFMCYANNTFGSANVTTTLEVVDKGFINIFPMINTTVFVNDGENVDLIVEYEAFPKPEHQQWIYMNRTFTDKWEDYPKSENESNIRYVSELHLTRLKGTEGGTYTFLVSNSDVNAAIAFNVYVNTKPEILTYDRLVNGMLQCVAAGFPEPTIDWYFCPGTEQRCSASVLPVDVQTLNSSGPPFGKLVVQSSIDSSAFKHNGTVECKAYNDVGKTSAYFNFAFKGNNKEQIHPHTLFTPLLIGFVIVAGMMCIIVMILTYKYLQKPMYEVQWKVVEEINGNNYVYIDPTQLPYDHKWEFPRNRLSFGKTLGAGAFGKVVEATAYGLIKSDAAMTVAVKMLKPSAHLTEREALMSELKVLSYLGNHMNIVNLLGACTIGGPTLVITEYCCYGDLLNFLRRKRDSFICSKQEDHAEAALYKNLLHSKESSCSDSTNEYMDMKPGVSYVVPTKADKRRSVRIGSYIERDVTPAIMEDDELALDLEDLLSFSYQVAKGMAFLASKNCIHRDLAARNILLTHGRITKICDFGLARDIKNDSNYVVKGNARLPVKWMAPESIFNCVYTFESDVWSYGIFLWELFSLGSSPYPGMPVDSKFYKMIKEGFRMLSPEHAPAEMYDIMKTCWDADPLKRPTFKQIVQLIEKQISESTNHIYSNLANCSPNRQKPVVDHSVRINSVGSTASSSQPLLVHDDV

As to `Cc1ccc(-c2noc([C@H]3C[C@@H]3F)n2)cc1NC(=O)c1cnc2cc3c(cn12)C(C)OC3` (single isomer, unassigned) [Compound I-482, (4S*)—N-[5-[5-[(1R,2S)-2-fluorocyclopropyl]-1,2,4-oxadiazol-3-yl]-2-methyl-phenyl]-4-methyl-5-oxa-1,10-diazatricyclo[7.3.0.0^3,7]dodeca-2,7,9,11-tetraene-12-carboxamide], the half-inhibitory concentration (IC50) is not above 50 nM. Under `Cc1ccc(-c2noc([C@H]3C[C@@H]3F)n2)cc1NC(=O)c1cnc2c(F)c(COCC(C)(C)O)ccn12` [Compound I-473] stands 50 to 500 nM. The same measure for `Cc1ccn2c(C(=O)Nc3cc(-c4noc(CCC(C)(O)C(F)(F)F)n4)ccc3C)cnc2c1` (single isomer, unassigned) [Compound I-516]: not above 50 nM; for `Cc1ccc(-c2noc(C[C@H](O)C(F)F)n2)cc1NC(=O)c1cnc2cc(OCCO)ccn12` [Compound I-570, (S)—N-(5-(5-(3,3-difluoro-2-hydroxypropyl)-1,2,4-oxadiazol-3-yl)-2-methylphenyl)-7-(2-hydroxyethoxy)imidazo[1,2-a]pyridine-3-carboxamide]: not above 50 nM.

For the compound `COCc1ccn2c(C(=O)Nc3cc(-c4noc(C(C)O)n4)ccc3C)cnc2c1` (stereo not drawn) [Compound I-735], the IC50 lay in the range of 500 to 5000 nM. Under `Cc1ccn2c(C(=O)Nc3cc(-c4noc(-c5nc(C)oc5C)n4)ccc3C)cnc2c1` [Compound I-551] stands not above 50 nM.

For the compound `Cc1ccc(-c2noc(N3CC(F)(F)C3)n2)cc1NC(=O)c1cnc2cc(Cl)ccn12` [Compound I-601, 7-chloro-N-(5-(5-(3,3-difluoroazetidin-1-yl)-1,2,4-oxadiazol-3-yl)-2-methylphenyl)imidazo[1,2-a]pyridine-3-carboxamide], the half-inhibitory concentration (IC50) was not above 50 nM.

Take `COc1ccn2c(C(=O)Nc3cc(-c4noc(C)n4)ccc3C)cnc2c1` [Compound I-533, 7-methoxy-N-(2-methyl-5-(5-methyl-1,2,4-oxadiazol-3-yl)phenyl)imidazo[1,2-a]pyridine-3-carboxamide]: the IC50 is not above 50 nM.

With `Cc1ccc(-c2ncon2)cc1NC(=O)c1cnc2cc(-c3cscn3)ccn12` [Compound I-694], the concentration for half-maximal inhibition (IC50) is not above 50 nM. Take `Cc1ccc(-c2noc([C@H]3C[C@@H]3F)n2)cc1NC(=O)c1cnc2cc(COCC(O)C(F)F)ccn12` (stereo partly drawn) [Compound I-499, 7-((3,3-difluoro-2-hydroxypropoxy)methyl)-N-(5-(5-((1R,2S)-2-fluorocyclopropyl)-1,2,4-oxadiazol-3-yl)-2-methylphenyl)imidazo[1,2-a]pyridine-3-carboxamide]: the IC50 is not above 50 nM. Take `Cc1ccc(-c2noc([C@H]3C[C@@H]3F)n2)cc1NC(=O)c1cnc2cc(COCCS(C)(=O)=O)ccn12` [Compound I-454, N-[5-[5-[(1R,2S)-2-fluorocyclopropyl]-1,2,4-oxadiazol-3-yl]-2-methyl-phenyl]-7-(2-methylsulfonylethoxymethyl)imidazo[1,2-a]pyridine-3-carboxamide]: the IC50 was not above 50 nM. For `Cc1ccc(-c2noc([C@H]3C[C@@H]3F)n2)cc1NC(=O)c1cnc2cc(CC(C)(C)O)ccn12` [Compound I-460], the IC50 lay in the range of 50 to 500 nM. As for `Cc1ccc(-c2noc(CCC(C)(C)O)n2)cc1NC(=O)c1cnc2cc(COCC(C)(C)O)ccn12` [Compound I-567], the half-inhibitory concentration (IC50) was in the range of 50 to 500 nM. The same measure for `Cc1nc(-c2ccc(C)c(NC(=O)c3cnc4cc(Cl)ccn34)c2)no1` [Compound I-675]: not above 50 nM; for `Cc1ccc(-c2nc(-c3ccc(C)c(NC(=O)c4cnc5cc(C)ccn45)c3)no2)nc1` [Compound I-544]: 50 to 500 nM; for `Cc1nc(-c2ccc(C)c(NC(=O)c3cnc4cc(-c5cscn5)ccn34)c2)no1` [Compound I-548, N-(2-methyl-5-(5-methyl-1,2,4-oxadiazol-3-yl)phenyl)-7-(thiazol-4-yl)imidazo[1,2-a]pyridine-3-carboxamide]: not above 50 nM. Turning to `Cc1ccc(-c2noc([C@H]3C[C@@H]3F)n2)cc1NC(=O)c1cnc2cc(C(=O)O)ccn12` [Compound I-491], the IC50 lay within 50 to 500 nM. Under `Cc1ccc(-c2noc([C@H]3CCN3)n2)cc1NC(=O)c1cnc2cc(-c3ccn(C)n3)ccn12` [Compound I-624, N-[5-[5-[(2R)-azetidin-2-yl]-1,2,4-oxadiazol-3-yl]-2-methyl-phenyl]-7-(1-methylpyrazol-3-yl)imidazo[1,2-a]pyridine-3-carboxamide] stands not above 50 nM; under `Cc1ccc(-c2noc(N3CC(F)(F)C3)n2)cc1NC(=O)c1cnc2cc(OCCCN3CCCC3)ccn12` [Compound I-631, N-(5-(5-(3,3-difluoroazetidin-1-yl)-1,2,4-oxadiazol-3-yl)-2-methylphenyl)-7-(3-(pyrrolidin-1-yl)propoxy)imidazo[1,2-a]pyridine-3-carboxamide], not above 50 nM; under `Cc1ccc(-c2noc([C@H]3C[C@@H]3F)n2)cc1NC(=O)c1cnc2cc(OCCCN3CCCC3)ccn12` [Compound I-630, N-(5-(5-((1R,2S)-2-fluorocyclopropyl)-1,2,4-oxadiazol-3-yl)-2-methylphenyl)-7-(3-(pyrrolidin-1-yl)propoxy)imidazo[1,2-a]pyridine-3-carboxamide], not above 50 nM.

For `CC[C@@H](O)Cc1nc(-c2ccc(C)c(NC(=O)c3cnc4cc(Cl)ccn34)c2)no1` [Compound I-616, 7-chloro-N-[5-[5-[(2R)-2-hydroxybutyl]-1,2,4-oxadiazol-3-yl]-2-methyl-phenyl]imidazo[1,2-a]pyridine-3-carboxamide], the IC50 was not above 50 nM. The same measure for `Cc1ccc(-c2noc([C@H]3C[C@@H]3F)n2)cc1NC(=O)c1cnc2cc3c(cn12)COC3C` (single isomer, unassigned) [Compound I-471, (6R*)—N-[5-[5-[(1R,2S)-2-fluorocyclopropyl]-1,2,4-oxadiazol-3-yl]-2-methyl-phenyl]-6-methyl-5-oxa-1,10-diazatricyclo[7.3.0.03,7]dodeca-2,7,9,11-tetraene-12-carboxamide]: not above 50 nM; for `Cc1ccc(-c2noc([C@H]3C[C@@H]3F)n2)cc1NC(=O)c1cnc2ccc(COCCO)cn12` [Compound I-453, N-[5-[5-[(1R,2S)-2-fluorocyclopropyl]-1,2,4-oxadiazol-3-yl]-2-methyl-phenyl]-6-(2-hydroxyethoxymethyl)imidazo[1,2-a]pyridine-3-carboxamide]: not above 50 nM; for `Cc1ccc(-c2ncon2)cc1NC(=O)c1cnc2cc(N3CCOCC3)ccn12` [Compound I-717]: not above 50 nM. The same measure for `Cc1ccn2c(C(=O)Nc3cc(-c4noc(C5CCC(F)(F)CC5)n4)ccc3C)cnc2c1` [Compound I-540, 4 N-(5-(5-(4,4-difluorocyclohexyl)-1,2,4-oxadiazol-3-yl)-2-methylphenyl)-7-methylimidazo[1,2-a]pyridine-3-carboxamide]: not above 50 nM. Under `Cc1ccc(-c2noc(C[C@H](O)C(F)F)n2)cc1NC(=O)c1cnc2cc(COCc3c[nH]nn3)ccn12` [Compound I-575, (S)-7-(((1H-1,2,3-triazol-4-yl)methoxy)methyl)-N-(5-(5-(3,3-difluoro-2-hydroxypropyl)-1,2,4-oxadiazol-3-yl)-2-methylphenyl)imidazo[1,2-a]pyridine-3-carboxamide] stands not above 50 nM. With `Cc1ccc(-c2noc(N3CC(F)(F)C3)n2)cc1NC(=O)c1cnn2cc(Cl)ccc12` [Compound I-625], the half-inhibitory concentration (IC50) was not above 50 nM. As for `Cc1ccc(-c2noc([C@H]3C[C@@H]3F)n2)cc1NC(=O)c1cnc2cc(CCC(C)(C)CO)ccn12` [Compound I-474, N-[5-[5-[(1R,2S)-2-fluorocyclopropyl]-1,2,4-oxadiazol-3-yl]-2-methyl-phenyl]-7-(4-hydroxy-3,3-dimethyl-butyl)imidazo[1,2-a]pyridine-3-carboxamide], the half-maximal inhibitory concentration (IC50) is not above 50 nM. Under `Cc1ccc(-c2noc([C@@H]3CC4(CC4)CN3)n2)cc1NC(=O)c1cnc2cc(F)ccn12` [Compound I-628, (S)—N-(5-(5-(5-azaspiro[2.4]heptan-6-yl)-1,2,4-oxadiazol-3-yl)-2-methylphenyl)-7-fluoroimidazo[1,2-a]pyridine-3-carboxamide] stands not above 50 nM; under `Cc1ccc(-c2noc(-c3cccnc3)n2)cc1NC(=O)c1cnn2cc(-c3ccn(C)n3)ccc12` [Compound I-723], not above 50 nM; under `Cc1ccc(-c2noc(C[C@H](O)C(F)F)n2)cc1NC(=O)c1cnc2cc(OCC(C)(C)O)ccn12` [Compound I-576], not above 50 nM.

`Cc1ccc(-c2noc([C@H]3C[C@@H]3F)n2)cc1NC(=O)c1cnn2cc(COCC(C)(C)O)ccc12` [Compound I-466, N-[5-[5-[(1R,2S)-2-fluorocyclopropyl]-1,2,4-oxadiazol-3-yl]-2-methyl-phenyl]-6-[(2-hydroxy-2-methylpropoxy)methyl]pyrazolo[1,5-a]pyridine-3-carboxamide]: the IC50 is not above 50 nM. The same measure for `COc1ccn2c(C(=O)Nc3cc(-c4noc(CC5CCCCO5)n4)ccc3C)cnc2c1` (stereo not drawn) [Compound I-592, 7-methoxy-N-(2-methyl-5-(5-((tetrahydro-2H-pyran-2-yl)methyl)-1,2,4-oxadiazol-3-yl)phenyl)imidazo[1,2-a]pyridine-3-carboxamide]: not above 50 nM.
